BindingDB's records for doi:10.1021/jm801416q (Pharmacopeia, 2010)

Test: Antagonist activity at human CCR1 in THP1 cells assessed as inhibition of MIP-1-alpha-induced chemotaxis after 3 hrs

Row | IC50 [nM] | SMILES
1 | 35 | CN(Cc1ccc(Cl)cc1)C(=O)[C@H]1CCCN1C(=O)Nc1ccc(C(F)(F)F)cc1Cl [(R)-N2-(4-Chlorobenzyl)-N1-[2-chloro-4-(trifluoromethyl)phenyl]-N2-methylpyrrolidine-1,2-dicarboxamide]
2 | 440 | COc1ccc(NC(=O)N2CCC[C@@H]2C(=O)N(C)Cc2ccc(Cl)cc2)cc1 [(R)-N2-(4-Chlorobenzyl)-N1-(4-methoxyphenyl)-N2-methylpyrrolidine-1,2-dicarboxamide]
3 | 6 | Cc1cc(C(F)(F)F)cc(C)c1NC(=O)N1CCC[C@@H]1C(=O)N(C)Cc1ccc(Cl)cc1 [(R)-N2-(4-Chlorobenzyl)-N1-[2,6-dimethyl-4-(trifluoromethyl)phenyl]-N2-methylpyrrolidine-1,2-dicarboxamide]
4 | 16 | Cc1cc(C(F)(F)F)ccc1NC(=O)N1CCC[C@@H]1C(=O)N(C)Cc1ccc(Cl)cc1 [(R)-N2-(4-Chlorobenzyl)-N2-methyl-N1-[2-methyl-4-(trifluoromethyl)phenyl]pyrrolidine-1,2-dicarboxamide]
